Test results: ChEMBL document CHEMBL4699536, “Discovery of Natural Compounds for Cardiac Fibrosis by a Transcriptome-Based Functional Gene Module Reference Approach” (J Nat Prod, 2020)
Active and inactive are the calls of the source.

How the values were obtained:
Assay type in all cases: functional, organism-based
Settings in all cases: time 30.0 day
Rattus norvegicus [1] = assay: Cardioprotective activity in Sprague-Dawley rat model of LAD coronary artery ligation-induced cardiac fibrosis assessed as decrease in heart weight ratio at 2.86 mg/kg, po administered via gavage for 30 days
Rattus norvegicus [2] = assay: Cardioprotective activity in Sprague-Dawley rat model of LAD coronary artery ligation-induced cardiac fibrosis assessed as increase in fractional shortening at 2.86 mg/kg, po administered via gavage for 30 days by echocardiography
Rattus norvegicus [3] = assay: Cardioprotective activity in Sprague-Dawley rat model of LAD coronary artery ligation-induced cardiac fibrosis assessed as decrease in collagen in heart at 2.86 mg/kg, po administered via gavage for 30 days by Masson trichrome staining based microscopic method
Rattus norvegicus [4] = assay: Cardioprotective activity in Sprague-Dawley rat model of LAD coronary artery ligation-induced cardiac fibrosis assessed as increase in organized myocardial cells at 2.86 mg/kg, po administered via gavage for 30 days by H and E staining based optical microscopic method
Rattus norvegicus [5] = assay: Cardioprotective activity in Sprague-Dawley rat model of LAD coronary artery ligation-induced cardiac fibrosis assessed as decrease in myocardial necrotic area at 2.86 mg/kg, po administered via gavage for 30 days
Rattus norvegicus [6] = assay: Cardioprotective activity in Sprague-Dawley rat model of LAD coronary artery ligation-induced cardiac fibrosis assessed as reduction in infarct survival area of myocardial cells at 2.86 mg/kg, po administered via gavage for 30 days by H and E staining based optical microscopic method
Rattus norvegicus [7] = assay: Cardioprotective activity in Sprague-Dawley rat model of LAD coronary artery ligation-induced cardiac fibrosis assessed as decrease in collagen volume fraction at 2.86 mg/kg, po administered via gavage for 30 days by Masson trichrome staining based microscopic method
Rattus norvegicus [8] = assay: Cardioprotective activity in Sprague-Dawley rat model of LAD coronary artery ligation-induced cardiac fibrosis assessed as increase in left ventricular function by measuring reduction in LAD-induced anterior wall weakened at 2.86 mg/kg, po administered via gavage for 30 days by echocardiography
Rattus norvegicus [9] = assay: Cardioprotective activity in Sprague-Dawley rat model of LAD coronary artery ligation-induced cardiac fibrosis assessed as increase in ejection fraction at 2.86 mg/kg, po administered via gavage for 30 days by echocardiography
Rattus norvegicus [10] = assay: Cardioprotective activity in Sprague-Dawley rat model of LAD coronary artery ligation-induced cardiac fibrosis assessed as decrease in heart weight ratio at 10 mg/kg, po administered via gavage for 30 days
Rattus norvegicus [11] = assay: Cardioprotective activity in Sprague-Dawley rat model of LAD coronary artery ligation-induced cardiac fibrosis assessed as decrease in Col3a1 mRNA expression at 10 mg/kg, po administered via gavage for 30 days by RT2 Profiler PCR Array
Rattus norvegicus [12] = assay: Cardioprotective activity in Sprague-Dawley rat model of LAD coronary artery ligation-induced cardiac fibrosis assessed as decrease in collagen volume fraction at 10 mg/kg, po administered via gavage for 30 days by Masson trichrome staining based microscopic method
Rattus norvegicus [13] = assay: Cardioprotective activity in Sprague-Dawley rat model of LAD coronary artery ligation-induced cardiac fibrosis assessed as increase in ejection fraction at 10 mg/kg, po administered via gavage for 30 days by echocardiography
Rattus norvegicus [14] = assay: Cardioprotective activity in Sprague-Dawley rat model of LAD coronary artery ligation-induced cardiac fibrosis assessed as increase in organized myocardial cells at 10 mg/kg, po administered via gavage for 30 days by H and E staining based optical microscopic method
Rattus norvegicus [15] = assay: Cardioprotective activity in Sprague-Dawley rat model of LAD coronary artery ligation-induced cardiac fibrosis assessed as decrease in Lox mRNA expression at 10 mg/kg, po administered via gavage for 30 days by RT2 Profiler PCR Array
Rattus norvegicus [16] = assay: Cardioprotective activity in Sprague-Dawley rat model of LAD coronary artery ligation-induced cardiac fibrosis assessed as decrease in myocardial necrotic area at 10 mg/kg, po administered via gavage for 30 days
Rattus norvegicus [17] = assay: Cardioprotective activity in Sprague-Dawley rat model of LAD coronary artery ligation-induced cardiac fibrosis assessed as decrease in collagen in heart at 10 mg/kg, po administered via gavage for 30 days by Masson trichrome staining based microscopic method
Rattus norvegicus [18] = assay: Cardioprotective activity in Sprague-Dawley rat model of LAD coronary artery ligation-induced cardiac fibrosis assessed as reduction in infarct survival area of myocardial cells at 10 mg/kg, po administered via gavage for 30 days by H and E staining based optical microscopic method
Rattus norvegicus [19] = assay: Cardioprotective activity in Sprague-Dawley rat model of LAD coronary artery ligation-induced cardiac fibrosis assessed as increase in left ventricular function by measuring reduction in LAD-induced anterior wall weakened at 10 mg/kg, po administered via gavage for 30 days by echocardiography
Rattus norvegicus [20] = assay: Cardioprotective activity in Sprague-Dawley rat model of LAD coronary artery ligation-induced cardiac fibrosis assessed as increase in fractional shortening at 10 mg/kg, po administered via gavage for 30 days by echocardiography
Rattus norvegicus [21] = assay: Cardioprotective activity in Sprague-Dawley rat model of LAD coronary artery ligation-induced cardiac fibrosis assessed as decrease in CTGF mRNA expression at 10 mg/kg, po administered via gavage for 30 days by RT2 Profiler PCR Array

Measured: Activity

CCOC(=O)[C@H](CCc1ccccc1)N[C@@H](C)C(=O)N1CCC[C@H]1C(=O)O
active: Rattus norvegicus [1] | Rattus norvegicus [2] | Rattus norvegicus [3] | Rattus norvegicus [4] | Rattus norvegicus [5] | Rattus norvegicus [6] | Rattus norvegicus [7] | Rattus norvegicus [8] | Rattus norvegicus [9]

COc1cc2c(c(OC)c1OC)-c1c(cc3c(c1OC)OCO3)C[C@H](C)[C@](C)(O)[C@H]2OC(=O)c1ccccc1
not listed: Rattus norvegicus [1] | Rattus norvegicus [2] | Rattus norvegicus [3] | Rattus norvegicus [4] | Rattus norvegicus [5] | Rattus norvegicus [6] | Rattus norvegicus [7] | Rattus norvegicus [8] | Rattus norvegicus [9]
active: all other assays above
